Data on 3 compounds can be found in patent EP1042293B9, “SUBSTITUTED PYRIDINE AND PYRIDAZINE COMPOUNDS AND THEIR PHARMACEUTICAL USE” (AMGEN INC., priority 1997, dated 1999).

For the assay, the system named is TNF production by monocytes activated with bacterial lipopolysaccharide (LPS). The assay can be described thus: Lipopolysaccharide-activated monocyte TNF production assay. As to conditions: Homo sapiens, 4 h, adherent PBMC-derived monocytes, LPS from E. coli, TNF in supernatant by ELISA, read-out: IC50 values in the monocyte assay (LPS induced TNF release). The assay is classed as cell-based. Here is the method: Test compounds were evaluated in vitro for the ability to inhibit the production of TNF by monocytes activated with bacterial lipopolysaccharide (LPS). Fresh residual source leukocytes (a byproduct of plateletpheresis) were obtained from a local blood bank, and peripheral blood mononuclear cells (PBMCs) were isolated by density gradient centrifugation on Ficol-Paque Plus (Pharmacia). PBMCs were suspended at […] /ml in DMEM supplemented to contain 2% FCS, 10 mM, 0.3 mg/ml glutamate, 100 U/ml penicillin G and […] streptomycin sulfate (complete media). Cells were plated into Falcon flat bottom, 96 well culture plates (200 µl/well) and cultured overnight at 37°C and 6% CO2. Non-adherent cells were removed by washing with 200 µl/well of fresh medium. Wells containing adherent cells (~70% monocytes) were replenished with 100 µl of fresh medium.
Test compounds were dissolved in […]. Compound stock solutions were prepared to an initial concentration of […]. Stocks were diluted initially to 20 - 200 µM in complete media. Nine twofold serial dilutions of each compound were then prepared in complete medium.
One hundred microliters of each test compound dilution were added to microtiter wells containing adherent monocytes and 100 µl complete medium. Monocytes were cultured with test compounds for 60 min at which time 25 µl of complete medium containing 30 ng/ml lipopolysaccharide from E. coli K532 were added to each well. Cells were cultured an additional 4 hrs. Culture supernatants were then removed and TNF presence in the supernatants was quantified using an ELISA.
Flat bottom, 96 well Corning High Binding ELISA plates were coated overnight (4°C) with 150 µL/well of 3 µg/ml murine anti-human TNF-α MAb (R&D Systems #MAB210). […]
Standard curve data were fit to a second order polynomial and unknown TNF-α concentrations determined from their OD by solving this equation for concentration. […]
(An ELISA detects its analyte on a solid surface through an enzyme-linked reagent.)
As for `Cc1cccc(-c2cc(OC[C@@H](N)Cc3ccccc3)ncc2-c2ccncc2)c1` [Example 14, 2-((S)-2-amino-3-phenylpropoxy)-4-(3-methylphenyl)-5-(4-pyridyl)pyridine], the IC50 (usually the point on the concentration scale where inhibition reaches its midpoint) is no more than 20 µM.

For the compound `Cc1cccc(-c2cc(OCCCc3ccccc3)ncc2-c2ccncc2)c1` [Example 18, 2-(3-phenylpropoxy)-4-(3-methylphenyl)-5-(4-pyridyl)pyridine], the IC50 was no more than 20 µM.

As for `Cc1cccc(-c2cc(=O)n(CCCc3ccccc3)cc2-c2ccncc2)c1` [Example 19, 1-(3-phenylpropyl)-4-(3-methylphenyl)-5-(4-pyridyl)-1H-pyrid-2-one], the IC50 is no more than 20 µM.
